One series concerns ER+ breast cancer. The conditions noted are these: both in vitro and in vivo; cited from earlier work.
The next series deals with ERα expression. The note with it: ER+ breast cancer cells highly expressing KAT6A; cited from earlier work.
Another series has as its system ZR-75-1. Description: ZR-75-1 proliferation assay (CellTiter-Glo, day 14). Type of series: cell-based. The conditions noted are these: Homo sapiens, 336 h, CTG assay day 14. The source says: Test Example 4: ZR-75-1 Proliferation Assay
I. Reagents and Instruments
• 1. ZR-75-1 (ATCC CRL1500) • 2. 1640 medium (Gibco, 22400-089) • 3. 0.25% trypsin-EDTA (1×) (Gibco, 25200-072) • 4. Penicillin-streptomycin (Gibco, 15140-122) • 5. DPBS (1×) (Gibco, 14190-144) • 6. FBS (Gibco, 10091148) • 7. Assay plate, 96-well, black with clear bottom (Corning, 3603) • 8. 96-well non-treated round-bottom plate (JET BIOFIL, TCP-002-096) • 9. CellTiter-Glo buffer (Promega, G756B) • 10. CellTiter-Glo substrate (Promega, G755B) • 11. Automatic cell counter (Countstar, IC1000) • 12. Thermostatic incubator (Thermo, 1160) • 13. PHERAstar FS (BMG labtech, PHERAstar FS)
a. The state of cells was observed under a microscope to make sure that the cell confluence was about 90%.
b. The cell supernatant was discarded. The cells were rinsed with DPBS once, and the DPBS was removed. The cells were digested with a proper amount of trypsin and left to stand at 37° C. for 5 min.
c. The digestion was stopped with an equal volume of 1640 medium containing 10% FBS, and the cell suspension was collected and centrifuged at 300 g for 3 min. The cells were suspended in a proper amount of fresh medium.
d. The resulting cell suspension was collected and cell counting was performed.
e. The cell suspension was diluted to 5×10^4/mL, 50 μL/well with 1640 medium containing 10% FBS. Each well contained 2500 ZR-75-1 cells.
f. The cell culture plates were incubated overnight in a 37° C., 5% carbon dioxide incubator.
2. Compound Addition (Day 1)
a. Each compound was serially diluted in DMSO to 9 concentration points (initial concentration of 100 μM, 3-fold dilution; the highest concentration of each compound may be adjusted depending on its IC50). For example, in a 96-well non-treated round-bottom plate, 3 μL of compound was serially diluted in 6 μL of DMSO.
b. Each concentration point of each compound was diluted 500-fold in the corresponding volume of 1640 medium.
c. 50 μL of diluted compound solution was added to the cell supernatant (50 μL/well) in each cell plate.
d. After the addition, the cell plates were incubated in a 37° C., 5% carbon dioxide incubator.
3. The Cells were Re-Digested and Plated, and the Compounds were Added (Day 7).
a. Six days after the addition, the compound-containing medium was discarded. Then the cells were rinsed with DPBS (150 μL/well), and the DPBS was immediately pipetted off.
b. The cells were digested with 50 μL of trypsin and left to stand at 37° C. for 3 min, and then the digestion was stopped with 1640 medium containing 10% FBS (150 μL/well).
c. The cells were well mixed using a pipette and re-plated at a ratio of 1:8; that is, 25 μL of cell suspension was pipetted into a new 96-well plate (25 μL of 1640 medium containing 10% FBS had been added to the new plate in advance).
d. Compound solution preparation and addition (50 μL/well) were performed according to steps a to c in 2.
e. After the addition, the cell plates were incubated in a 37° C., 5% carbon dioxide incubator.
a. CellTiter-Glo buffer and lyophilized CellTiter-Glo substrate were equilibrated to room temperature before use and were well mixed to prepare a 100-mL CellTiter-Glo reagent (or a prepared CellTiter-Glo reagent was removed from a −20° C. freezer and equilibrated to room temperature).
b. The plates to be tested were removed from the incubator and equilibrated to room temperature, and the CellTiter-Glo reagent was added at 50 μL/well.
c. The plates were shaken for 2 min so that the cells were completely lysed.
d. After the plates were left to stand at room temperature for 28 min and signals were stable, the plates were tested on PHERAstar FS.
A general note: ATP-based viability assays read luminescence as a measure of living cells.

Another series concerns the target human KAT6A (Homo sapiens (Human), UniProt Q92794). Nature of the series: KAT6 enzyme activity assay (AlphaScreen method), KAT6A. In kind it is biochemical. The conditions noted are these: inhibition of the enzyme human KAT6A. The source says:
Test Example 1: KAT6 Enzyme Activity Assay (AlphaScreen Method)
I. Reagents and instrument • 1. KAT6A (customized by Chempartner) • 2. Ovalbumin (Sigma-Aldrich, A5378-5G) • 3. 2 M Tris-HCl solution, pH 7.8, sterile (Sangon, B548140-0500) • 4. 5 M NaCl solution (Sangon, B548121-0100) • 5. EDTA (0.5 M), pH 8.0, RNase-free (Thermofisher, AM9260G) • 6. Tween-20 (Sangon, A100777-0500) • 7. DTT, 1 M (Invitrogen, P2325) • 8. Acetyl coenzyme A (Ac-CoA, CAYMAN, Cat. No. 16160) • 9. Recombinant histone H3.1 biotinylated (human) (Active Motif 31696) • 10. 384-well plate, light gray (Perkin Elmer, Cat. No. 6005350) • 11. Anacardic acid (MCE, Cat. No. HY—N2020) • 12. AlphaScreen streptavidin donor beads, 5 mg (PerkinElmer, 6760002) • 13. AlphaScreen protein A acceptor beads, 5 mg (PerkinElmer, 6760137M) • 14. Acetylated-lysine antibody #9441 (CST 9441S) • 15. PHERA star microplate reader (BMG labtech) • II. Experimental method
a. 1× assay buffer: 100 mM Tris-HCl, pH 7.8; 15 mM NaCl; 1 mM EDTA; 0.01% tween-20; 1 mM DTT; 0.01% m/v ovalbumin.
b. KAT enzyme solution: 1.25 nM (final concentration), prepared in 1× assay buffer.
c. Mixed substrate of Ac-CoA and H3: a mixed substrate of 1000 nM (final concentration) Ac-CoA and 55 nM (final concentration) H3, prepared in 1× assay buffer.
d. Compounds: initial concentration of 100 μM, 3-fold dilution, 10 gradient concentrations. All compound concentrations were diluted 83-fold with 1× assay buffer for later use.
e. Assay reagent: 8 ng/μL (final concentration) AlphaScreen protein A acceptor beads, 8 ng/μL AlphaScreen streptavidin donor beads, 1:1500 diluted acetylated-lysine antibody, and 100 μM anacardic acid; prepared in 1× assay buffer.
2. Experimental Procedure
a. The prepared enzyme solution was added to a 384-well plate at 3 μL/well, and 3 μL of 1× assay buffer was added to each well in columns 23 and 24 (Min).
b. 3 μL of compound solution was added to each well, and 3 μL of buffer was added to each Min well; 3 μL of DMSO solution was added to each well in columns 1 and 2 (Max) as controls. The plate was centrifuged, shaken for 2 min, and incubated at room temperature for 15 min.
c. The mixed substrate of Ac-CoA and H3 was added at 6 μL/well, and the plate was centrifuged, shaken for 2 min, and incubated at room temperature for 20 min.
d. The assay reagent was added at 6 μL/well, and the plate was centrifuged, shaken for 2 min, and incubated in the dark at room temperature for 120 min.
e. Plate reading was performed on the microplate reader, and AlphaScreen counts were recorded.
f. Plotting was performed using the Graphpad software, and the IC50 values of the compounds were calculated.
A general note: Alpha assays give light when donor and acceptor beads are brought close together.

Series [1] in a line: Pharmacokinetic evaluation in SD rats. Type of series: in vivo. The note with it: both sexes, rat, plasma, po, i.g., 2.0 mg/kg. The protocol: Test Example 5: Pharmacokinetic Evaluation
SD rats were used as test animals. After intragastric (i.g.) administration of the compounds of the present disclosure to SD rats, the plasma concentrations at different time points were measured by the LC/MS/MS method. The pharmacokinetic behavior of the compounds of the present disclosure in SD rats was studied, and their pharmacokinetic profiles were evaluated.
Compound 2, compound 7, compound 21, and compound 23.
16 SD rats, of which half were male and half female, were evenly divided into 4 groups. The rats were provided by Vital River Laboratory Animal Technology Co., Ltd. The rats were fasted overnight and intragastrically administered the compounds.
2.3. Compound Solution Preparation
A certain amount of test compound was weighed out and dissolved in 5% DMSO+5% tween 80+90% normal saline to prepare a 0.2 mg/mL colorless clear solution.
The dose administered was 2.0 mg/kg, and the volume was 10.0 mL/kg.
0.1 mL blood samples were collected from the orbit before the administration and 0.25 h, 0.5 h, 1.0 h, 2.0 h, 4.0 h, 6.0 h, 8.0 h, 11.0 h and 24.0 h post-dose. The blood samples were placed into EDTA-K2 anticoagulation tubes and centrifuged at 10,000 rpm for 1 min (4° C.), and plasma was separated within 1 h and stored at −20° C. before analysis. The process from the blood collection to the centrifugation was performed in an ice bath. Access to food was given 2 h post-dose.
Measurement of plasma concentrations in SD rats after compounds were administered in different concentrations: 25 μL samples of the SD rat plasma collected at various time points post-dose were taken, and to each of the samples was added 25 μL of camptothecin (an internal standard for compound 2, 100 ng/mL) or 50 μL of tolbutamide (an internal standard for compound 7, 100 ng/mL) or 50 μL of verapamil (an internal standard for compounds 21 and 23, 100 ng/mL). Protein was precipitated with 200 μL of acetonitrile, and after 5 min of vortexing, the mixtures were centrifuged at 3700 rpm for 10 min. 120 µL of supernatant was taken and vortexed with 30 μL of water for 5 min, and a 5 μL sample was taken for LC/MS/MS analysis.

The text below walks through data of patent publication US20250145637A1, “SULFONAMIDE DERIVATIVE, PREPARATION METHOD THEREFOR AND MEDICAL USE THEREOF” (Jiangsu Hengrui Pharmaceuticals Co. Ltd., priority 2021, published 2025).

Broadly, the IC50 is the midpoint of a concentration-inhibition curve. The half-life is the time in which the quantity being followed falls by half.

human KAT6A, sequence (Q92794 whole entry): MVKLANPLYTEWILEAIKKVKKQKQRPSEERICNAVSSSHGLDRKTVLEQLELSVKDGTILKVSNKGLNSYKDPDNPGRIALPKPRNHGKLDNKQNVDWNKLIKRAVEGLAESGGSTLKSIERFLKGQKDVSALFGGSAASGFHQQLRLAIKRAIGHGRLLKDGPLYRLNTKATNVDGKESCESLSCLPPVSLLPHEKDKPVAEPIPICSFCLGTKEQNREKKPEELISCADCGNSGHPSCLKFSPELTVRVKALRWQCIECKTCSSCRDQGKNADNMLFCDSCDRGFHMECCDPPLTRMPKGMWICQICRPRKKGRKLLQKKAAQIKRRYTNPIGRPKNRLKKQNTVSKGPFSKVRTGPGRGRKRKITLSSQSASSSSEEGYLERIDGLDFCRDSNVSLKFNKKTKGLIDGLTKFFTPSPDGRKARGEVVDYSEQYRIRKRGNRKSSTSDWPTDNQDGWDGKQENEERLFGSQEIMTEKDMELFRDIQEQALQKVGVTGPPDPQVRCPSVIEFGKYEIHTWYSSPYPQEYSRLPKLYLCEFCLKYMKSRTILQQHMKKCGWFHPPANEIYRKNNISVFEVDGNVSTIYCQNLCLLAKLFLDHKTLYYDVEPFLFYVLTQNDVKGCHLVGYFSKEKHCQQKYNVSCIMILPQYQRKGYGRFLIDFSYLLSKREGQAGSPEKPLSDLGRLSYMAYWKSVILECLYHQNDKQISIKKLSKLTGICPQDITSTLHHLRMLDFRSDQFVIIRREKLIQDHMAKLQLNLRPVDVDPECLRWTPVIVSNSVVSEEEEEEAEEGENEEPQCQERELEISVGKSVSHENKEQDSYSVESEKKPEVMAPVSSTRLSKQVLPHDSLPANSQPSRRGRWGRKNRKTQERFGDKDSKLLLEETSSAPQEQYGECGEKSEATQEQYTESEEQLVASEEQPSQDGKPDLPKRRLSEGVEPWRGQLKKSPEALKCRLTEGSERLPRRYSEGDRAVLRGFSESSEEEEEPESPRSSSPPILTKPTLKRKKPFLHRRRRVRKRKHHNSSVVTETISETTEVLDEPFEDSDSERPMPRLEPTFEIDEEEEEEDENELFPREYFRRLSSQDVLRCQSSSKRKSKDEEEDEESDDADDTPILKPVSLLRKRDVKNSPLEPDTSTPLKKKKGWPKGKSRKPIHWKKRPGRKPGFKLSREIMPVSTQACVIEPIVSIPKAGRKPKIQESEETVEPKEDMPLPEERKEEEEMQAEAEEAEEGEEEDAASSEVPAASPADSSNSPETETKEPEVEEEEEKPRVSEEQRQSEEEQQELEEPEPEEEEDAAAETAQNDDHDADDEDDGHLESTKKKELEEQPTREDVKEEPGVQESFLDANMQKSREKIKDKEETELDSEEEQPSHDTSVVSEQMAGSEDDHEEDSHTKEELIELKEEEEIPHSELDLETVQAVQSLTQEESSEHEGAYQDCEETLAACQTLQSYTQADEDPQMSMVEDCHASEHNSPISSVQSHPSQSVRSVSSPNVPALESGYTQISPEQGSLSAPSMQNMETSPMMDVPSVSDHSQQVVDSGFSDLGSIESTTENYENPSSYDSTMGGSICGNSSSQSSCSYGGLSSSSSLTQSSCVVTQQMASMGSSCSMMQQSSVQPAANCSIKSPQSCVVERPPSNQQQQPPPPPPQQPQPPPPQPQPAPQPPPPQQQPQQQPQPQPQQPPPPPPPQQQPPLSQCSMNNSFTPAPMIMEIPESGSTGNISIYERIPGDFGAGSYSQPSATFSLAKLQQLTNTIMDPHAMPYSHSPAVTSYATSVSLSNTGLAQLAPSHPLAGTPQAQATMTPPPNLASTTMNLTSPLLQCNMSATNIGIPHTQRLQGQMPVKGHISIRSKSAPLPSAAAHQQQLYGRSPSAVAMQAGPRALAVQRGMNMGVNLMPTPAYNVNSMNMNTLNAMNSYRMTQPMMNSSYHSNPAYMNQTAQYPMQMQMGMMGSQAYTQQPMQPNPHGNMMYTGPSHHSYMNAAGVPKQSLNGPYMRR

In the case of `COc1cccc(OC)c1S(=O)(=O)Nc1noc2cc(Cn3cccn3)cc(OC)c12` [CTx-648], the “anti-tumor activity in ER+ breast cancer” value with ER+ breast cancer is “shows anti-tumor activity”. For the same molecule, the ERα expression entry in the series with ERα expression was “can down-regulate ERα expression”.

Take `COc1cc2c(cc1S(=O)(=O)Nc1noc3cc(Cn4cccn4)c4c(c13)OCCC4)CCC2` [Compound 6, N-(5-((1H-pyrazol-1-yl)methyl)-3,4-dihydro-2H-chromeno[8,7-d]isoxazol-9-yl)-6-methoxy-2,3-dihydro-1H-indene-5-sulfonamide]: the figures for the IC50 with ZR-75-1 (ZR-75-1 proliferation) and against human KAT6A were 0.6 nM and 0.4 nM, respectively. Moreover, the Emax in the series on ZR-75-1 (inhibition of ZR-75-1 proliferation, read-out: Maximum inhibition rate/Imax %) came out at 95.4%.

For `Cc1ccc(S(=O)(=O)Nc2noc3cc(Cn4cccn4)c4c(c23)OCC4)c(OCC(F)(F)F)c1` [Compound 21, N-(4-((1H-pyrazol-1-yl)methyl)-2,3-dihydrobenzofuro[7,6-d]isoxazol-8-yl)-4-methyl-2-(2,2,2-trifluoroethoxy)benzenesulfonamide], in series [1] (read-out: Apparent distribution volume Vz/F), the Vd/F is 0.496 L/kg. Besides, the AUC(0-t) in series [1] (read-out: Area under curve AUC0-t) stood at 43700 ng·h/mL. Moreover, in series [1] (read-out: Clearance rate CL/F), the CL/F came out at 0.788 mL/min/kg. Further, in series [1] (read-out: Half-life T½ (converted)), the half-life is 9.58 h. The Cmax in series [1] (read-out: Plasma concentration Cmax) was 4310 ng/mL. At human KAT6A, this molecule displayed an IC50 of 4.6 nM.
